The numbers were not newly measured in patent US20220202803A1, “COMBINATION THERAPIES INCLUDING INHIBITORS OF DIHYDROOROTATE DEHYDROGENASE” (Clear Creek Bio, Inc., priority 2019, published 2022), which cites them from elsewhere.

The test system of one data set is mouse model of AML. The settings on record: daily administration of high doses.
A further data set concerns solid tumor malignancies. The conditions noted are these: administered over a 5-day period followed by a 3-week gap or once per week for three weeks followed by a 1-week gap.

As for `Cc1c(-c2ccc(-c3ccccc3F)cc2)nc2ccc(F)cc2c1C(=O)O` [brequinar, 6-fluoro-2-(2′-fluoro-1,1′ biphenyl-4-yl)-3-methyl-4-quinoline carboxylic acid], the adverse effects result in the data set on mouse model of AML is “weight loss, anemia, and thrombocytopenia”. Moreover, the “efficacy in solid tumor malignancies” value in the data set on solid tumor malignancies is given as “ineffective”.
